# Patent US12281122B1, “PI3K inhibitors” (Cogent Biosciences, Inc., priority 2023, dated 2025)
# Key:
# [1] = tested on: T47D (PI3Kα-H1047R) cell line; assay: HTRF phospho-AKT(S473) cell assay in T47D cells; assay type: cell-based, human
# How it was run: (§1)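 pAKT(S473) in lysates read by HTRF after a 2 h, 37 °C compound exposure (12-point 1:3 series, max 0.5% DMSO). SKBR3 (wild type, top 10 μM) received 70 ng/ml PDGF-BB during the final 15 min; T47D (H1047R, top 5 μM) was unstimulated. IC50 values derived from the dose-response.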
# [2] = tested on: SKBR3 (PI3Kα-Wild Type) cell line; assay: HTRF phospho-AKT(S473) cell assay in SKBR3 cells; assay type: cell-based, human
# How it was run: as §1
# [3] = Homo sapiens; T47D (PI3Kα-H1047R) cells, HTRF phospho-AKT(S473), 2 hours compound incubation
# [4] = Homo sapiens, SK-BR-3; SKBR3 (PI3Kα-Wild Type) cells, HTRF phospho-AKT(S473), 2 hours compound incubation, PDGF-BB stimulated
# [5] = Homo sapiens; HTRF phospho-AKT(S473), T47D (PI3Kα-H1047R) cells, 2 hours compound incubation
# [6] = Homo sapiens, SK-BR-3; HTRF phospho-AKT(S473), SKBR3 (PI3Kα-Wild Type) cells, 2 hours compound incubation, PDGF-BB stimulated
SMILES,"IC50 [1, 3] [nM]","IC50 [2, 4] [nM]","IC50 [1, 5] [nM]","IC50 [2, 6] [nM]"
"Cc1cc([C@@H](C)Nc2ccc(Cl)nc2C(=O)NS(C)(=O)=O)c2nc(N3C[C@@H]4[C@H](C3)[C@H]4c3cnc(C)cn3)n(C)c(=O)c2c1 [Compound 394, 6-chloro-3-(((R)-1-(3,6-dimethyl-2-((1R,5S,6R)-6-(5-methylpyrazin-2-yl)-3-azabicyclo[3.1.0]hexan-3-yl)-4-oxo-3,4-dihydroquinazolin-8-yl)ethyl)amino)-N-(methylsulfonyl) picolinamide]",< 250,1000 to 5000,,
"Cc1cc([C@@H](C)Nc2ccc(Cl)nc2C(=O)NS(C)(=O)=O)c2nc(N3CCC(c4ncn(C)n4)CC3)n(C)c(=O)c2c1 [Compound 253, (R)-6-chloro-3-((1-(3,6-dimethyl-2-(4-(1-methyl-1H-1,2,4-triazol-3-yl)piperidin-1-yl)-4-oxo-3,4-dihydroquinazolin-8-yl)ethyl)amino)-N-(methylsulfonyl) picolinamide]",250 to 500,1000 to 5000,,
"Cc1cc([C@@H](C)Nc2ccc(Cl)nc2C(=O)NS(C)(=O)=O)c2nc(N3C[C@@H]4[C@H](C3)[C@H]4c3ccnc(C)c3F)n(C)c(=O)c2c1 [Compound 548, 6-chloro-3-(((R)-1-(2-((1R,5S,6S)-6-(3-fluoro-2-methylpyridin-4-yl)-3-azabicyclo[3.1.0]hexan-3-yl)-3,6-dimethyl-4-oxo-3,4-dihydroquinazolin-8-yl)ethyl)amino)-N-(methylsulfonyl) picolinamide]",,,250 to 500,1000 to 5000
"Cc1cnc(N2C[C@@H]3[C@H](C2)[C@H]3c2nc3c([C@@H](C)Nc4ccc(Cl)nc4C(=O)NS(C)(=O)=O)cc(C)cc3c(=O)n2C)nc1 [Compound 810, 6-chloro-3-(((R)-1-(3,6-dimethyl-2-((1R,5S,6r)-3-(5-methylpyrimidin-2-yl)-3-azabicyclo[3.1.0]hexan-6-yl)-4-oxo-3,4-dihydroquinazolin-8-yl)ethyl)amino)-N-(methylsulfonyl) picolinamide]",,,250 to 500,≥ 5000
"Cc1cc([C@@H](C)Nc2ccc(Cl)nc2C(=O)NS(C)(=O)=O)c2nc(N3CCc4c(cnn4CC(F)(F)F)C3)n(C)c(=O)c2c1 [Compound 221, (R)-6-chloro-3-((1-(3,6-dimethyl-4-oxo-2-(1-(2,2,2-trifluoroethyl)-1,4,6,7-tetrahydro-5H-pyrazolo[4,3-c]pyridin-5-yl)-3,4-dihydroquinazolin-8-yl)ethyl)amino)-N-(methylsulfonyl) picolinamide]",< 250,1000 to 5000,,
"Cc1cc([C@@H](C)Nc2ccc(Cl)nc2C(=O)NS(C)(=O)=O)c2nc(N3CCC(c4c(F)cnn4C(F)F)CC3)n(C)c(=O)c2c1 [Compound 464, (R)-6-chloro-3-((1-(2-(4-(1-(difluoromethyl)-4-fluoro-1H-pyrazol-5-yl)piperidin-1-yl)-3,6-dimethyl-4-oxo-3,4-dihydroquinazolin-8-yl)ethyl)amino)-N-(methylsulfonyl) picolinamide]",,,250 to 500,≥ 5000
"COc1cc(C2CCN(c3nc4c([C@@H](C)Nc5ccc(Cl)nc5C(=O)NS(C)(=O)=O)cc(C)cc4c(=O)n3C)CC2)nn1C [Compound 704, (R)-6-chloro-3-((1-(2-(4-(5-methoxy-1-methyl-1H-pyrazol-3-yl)piperidin-1-yl)-3,6-dimethyl-4-oxo-3,4-dihydroquinazolin-8-yl)ethyl)amino)-N-(methylsulfonyl) picolinamide]",,,250 to 500,≥ 5000
"Cc1cc([C@@H](C)Nc2ccc(Cl)nc2C(=O)NS(C)(=O)=O)c2nc(N3CCC(c4ncn(CC(F)(F)F)n4)CC3)n(C)c(=O)c2c1 [Compound 469, (R)-6-chloro-3-((1-(3,6-dimethyl-4-oxo-2-(4-(1-(2,2,2-trifluoroethyl)-1H-1,2,4-triazol-3-yl)piperidin-1-yl)-3,4-dihydroquinazolin-8-yl)ethyl)amino)-N-(methylsulfonyl) picolinamide]",,,250 to 500,≥ 5000
"Cc1cc([C@@H](C)Nc2ccc(Cl)nc2C(=O)NS(C)(=O)=O)c2nc(N3C[C@H]4CC4(c4cnc(C)cn4)C3)n(C)c(=O)c2c1 (relative stereo) [Compound 749, 6-chloro-3-(((R)-1-(3,6-dimethyl-2-((1R*,5S*)-1-(5-methylpyrazin-2-yl)-3-azabicyclo[3.1.0]hexan-3-yl)-4-oxo-3,4-dihydroquinazolin-8-yl)ethyl)amino)-N-(methylsulfonyl) picolinamide]",,,250 to 500,≥ 5000
"Cc1cc([C@@H](C)Nc2ccc(Cl)nc2C(=O)NS(C)(=O)=O)c2nc(N3CCC(c4nnc(C)n4C(F)F)CC3)n(C)c(=O)c2c1 [Compound 725, (R)-6-chloro-3-((1-(2-(4-(4-(difluoromethyl)-5-methyl-4H-1,2,4-triazol-3-yl)piperidin-1-yl)-3,6-dimethyl-4-oxo-3,4-dihydroquinazolin-8-yl)ethyl)amino)-N-(methylsulfonyl) picolinamide]",,,250 to 500,1000 to 5000

# Other lines, results leading:
"IC50 [1, 3] [nM]","IC50 [2, 4] [nM]","IC50 [1, 5] [nM]","IC50 [2, 6] [nM]",SMILES
250 to 500,1000 to 5000,,,"Cc1cc([C@@H](C)Nc2ccc(Cl)nc2C(=O)NS(C)(=O)=O)c2nc(N3Cc4cn(CCO)nc4C3)n(C)c(=O)c2c1 [Compound 149, (R)-6-chloro-3-((1-(2-(2-(2-hydroxyethyl)-2,6-dihydropyrrolo[3,4-c]pyrazol-5(4H)-yl)-3,6-dimethyl-4-oxo-3,4-dihydroquinazolin-8-yl)ethyl)amino)-N-(methylsulfonyl) picolinamide]"
,,250 to 500,≥ 5000,"Cc1cc([C@@H](C)Nc2ccc(Cl)nc2C(=O)NS(C)(=O)=O)c2nc(C3(c4ccccc4)CC3)n(C)c(=O)c2c1 [Compound 830, (R)-6-chloro-3-((1-(3,6-dimethyl-4-oxo-2-(1-phenylcyclopropyl)-3,4-dihydroquinazolin-8-yl)ethyl)amino)-N-(methylsulfonyl) picolinamide]"
,,250 to 500,1000 to 5000,"Cc1cc([C@@H](C)Nc2ccc(Cl)nc2C(=O)NS(C)(=O)=O)c2nc(-c3ccc4[nH]ncc4c3)n(C)c(=O)c2c1 [Compound 832, (R)-3-((1-(2-(1H-indazol-5-yl)-3,6-dimethyl-4-oxo-3,4-dihydroquinazolin-8-yl)ethyl)amino)-6-chloro-N-(methylsulfonyl) picolinamide]"
,,< 250,1000 to 5000,"Cc1cc([C@@H](C)Nc2ccc(Cl)nc2C(=O)NS(C)(=O)=O)c2nc(-c3ccc4nn(C5COC5)cc4c3)n(C)c(=O)c2c1 [Compound 792, (R)-6-chloro-3-((1-(3,6-dimethyl-2-(2-(oxetan-3-yl)-2H-indazol-5-yl)-4-oxo-3,4-dihydroquinazolin-8-yl)ethyl)amino)-N-(methylsulfonyl) picolinamide]"
,,< 250,1000 to 5000,"Cc1cc([C@@H](C)Nc2ccc(Cl)nc2C(=O)NS(C)(=O)=O)c2nc(-c3ccc4nc(C)oc4c3)n(C)c(=O)c2c1 [Compound 789, (R)-6-chloro-3-((1-(3,6-dimethyl-2-(2-methylbenzo[d]oxazol-6-yl)-4-oxo-3,4-dihydroquinazolin-8-yl)ethyl)amino)-N-(methylsulfonyl) picolinamide]"
,,250 to 500,≥ 5000,"Cc1cc([C@@H](C)Nc2ccc(Cl)nc2C(=O)NS(C)(=O)=O)c2nc(N3CCC(c4cccc5c4cnn5C)CC3)n(C)c(=O)c2c1 [Compound 678, (R)-6-chloro-3-((1-(3,6-dimethyl-2-(4-(1-methyl-1H-indazol-4-yl)piperidin-1-yl)-4-oxo-3,4-dihydroquinazolin-8-yl)ethyl)amino)-N-(methylsulfonyl) picolinamide]"
< 250,1000 to 5000,,,"Cc1cc([C@@H](C)Nc2ccc(Cl)nc2C(=O)NS(C)(=O)=O)c2nc(N3C[C@@H]4[C@H](C3)[C@H]4c3ccnc(C)c3)n(C)c(=O)c2c1 [Compound 384, 6-chloro-3-(((R)-1-(3,6-dimethyl-2-((1R,5S,6S)-6-(2-methylpyridin-4-yl)-3-azabicyclo[3.1.0]hexan-3-yl)-4-oxo-3,4-dihydroquinazolin-8-yl)ethyl)amino)-N-(methylsulfonyl) picolinamide]"
< 250,1000 to 5000,,,"Cc1cc([C@@H](C)Nc2ccc(Cl)nc2C(=O)NS(C)(=O)=O)c2nc(C3CCN(c4cnn(C)c4)CC3)n(C)c(=O)c2c1 [Compound 227, (R)-6-chloro-3-((1-(3,6-dimethyl-2-(1-(1-methyl-1H-pyrazol-4-yl)piperidin-4-yl)-4-oxo-3,4-dihydroquinazolin-8-yl)ethyl)amino)-N-(methylsulfonyl) picolinamide]"
,,250 to 500,≥ 5000,"Cc1cc([C@@H](C)Nc2ccc(Cl)nc2C(=O)NS(C)(=O)=O)c2nc(N3CCC4(CCc5c[nH]nc54)CC3)n(C)c(=O)c2c1 [Compound 682, (R)-6-chloro-3-((1-(2-(4,5-dihydro-2H-spiro [cyclopenta[c]pyrazole-6,4′-piperidin]-1′-yl)-3,6-dimethyl-4-oxo-3,4-dihydroquinazolin-8-yl)ethyl)amino)-N-(methylsulfonyl) picolinamide]"
,,< 250,≥ 5000,"COc1ccc([C@H]2[C@@H]3CN(c4nc5c([C@@H](C)Nc6ccc(Cl)nc6C(=O)NS(C)(=O)=O)cc(C)cc5c(=O)n4C)C[C@@H]32)cn1 [Compound 610, 6-chloro-3-(((R)-1-(2-((1R,5S,6S)-6-(6-methoxypyridin-3-yl)-3-azabicyclo[3.1.0]hexan-3-yl)-3,6-dimethyl-4-oxo-3,4-dihydroquinazolin-8-yl)ethyl)amino)-N-(methylsulfonyl) picolinamide]"
